# Measured values as given in US20250179187A1, “ANTI PD-L2 ANTIBODY” (REJUVERON SENESCENCE THERAPEUTICS AG, priority 2022, published 2025).
# System: PyMT spontaneous tumors
# Assay: Spontaneous mouse PyMT breast tumor model with tumor immunostaining
# Type: in vivo
# Details: immunohistochemistry; antibody co-treated with doxorubicin vs Vehicle or Doxorubicin+mIgG1 (p<0.05)
# Procedure: Hemizygous transgenic PyMT mice were allowed to develop tumors to an average size of around 200 cubic millimeters, usually around 9 weeks, at which time treatment was initiated, with N=3-5 per treatment group. Doxorubicin (Aurovitas) was administered intraperitoneally once per week at 4 mg/kg and antibodies were administered every three days at a dose of 10 mg/kg during four weeks or 3 mg/kg where noted. Vehicle-treated animals received only vehicle solvent for doxorubicin as a no-treatment control. Tumors were measured with a standard caliper once per week. At the end of the study, tumors were resected and further analyzed by immunohistochemistry. […]
# For double SA-beta-galactosidase/PD-L2 staining, following resection, tumors were fixed in 2% paraformaldehyde and 0.2% glutaldehyde in PBS for 2 hours at room temperature. […] To quantify the number of cells double positive for SA-beta-galactosidase and PDL2, 3 random fields from 2 mammary glands from each animal in each treatment group was analyzed with Image J software. Staining for CD3, CD4 and CD8 was also carried out by standard immunohistochemistry techniques on paraffin-embedded material and quantified according to pixel density using Image J software.
smiles,measurement,value
"COc1cccc2c1C(=O)c1c(O)c3c(c(O)c1C2=O)C[C@@](O)(C(=O)CO)C[C@@H]3O[C@H]1C[C@H](N)[C@H](O)[C@H](C)O1 [doxorubicin, reference compound]",cells double-positive for PD-L2 and SA-βGal in PyMT tumors,significantly induces double-positive cells
